Results taken from ChEMBL document CHEMBL1201862, “PubChem BioAssay data set” (2004).
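Cultured in 96-well plates, cells were exposed to test compound for 48 hours across five concentrations. GI50 marks 50% less growth.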 Active and inactive are the calls of the source. Cut-off read from the data, not from the text of the source: active = GI50 up to about 1.1 µM and inactive = higher.

Legend:
Test in all cases: DTP human tumour cell line panel, 48 h
SF-295 = system: SF-295
TK-10 = system: TK-10
UACC-257 = system: UACC-257
NCI-H226 = system: NCI-H226
HCT-15 = system: HCT-15
SK-MEL-2 = system: SK-MEL-2
HCC 2998 = system: HCC 2998
HOP-62 = system: HOP-62
SR = system: SR
SW-620 = system: SW-620
EKVX = system: EKVX
SNB-75 = system: SNB-75
OVCAR-5 = system: OVCAR-5
SF-268 = system: SF-268
K562 = system: K562
LOX IMVI = system: LOX IMVI
RPMI-8226 = system: RPMI-8226
RXF 393 = system: RXF 393
DLD-1 = system: DLD-1
KM-20L2 = system: KM-20L2

Compound	GI50 (SF-295)	GI50 (TK-10)	GI50 (UACC-257)	GI50 (NCI-H226)	GI50 (HCT-15)	GI50 (SK-MEL-2)	GI50 (HCC 2998)	GI50 (HOP-62)	GI50 (SR)	GI50 (SW-620)	GI50 (EKVX)	GI50 (SNB-75)	GI50 (OVCAR-5)	GI50 (SF-268)	GI50 (K562)	GI50 (LOX IMVI)	GI50 (RPMI-8226)	GI50 (RXF 393)	GI50 (DLD-1)	GI50 (KM-20L2)
O=C(O)Cc1ccc(N2N=C(c3ccccc3)CC2=O)cc1	> 100 µM (inactive)	> 100 µM (inactive)	> 100 µM (inactive)	> 100 µM (inactive)	> 100 µM	23.2 µM (inactive)	> 100 µM (inactive)	> 100 µM (inactive)	> 100 µM (inactive)	> 100 µM (inactive)	> 100 µM (inactive)	> 100 µM (inactive)	> 100 µM (inactive)	> 100 µM (inactive)	> 100 µM (inactive)	–	–	–	–	–
CCCCSCCC(N)P(=O)(O)O (stereo not given)	> 100 µM (inactive)	> 100 µM (inactive)	> 100 µM (inactive)	> 100 µM (inactive)	> 100 µM	> 100 µM (inactive)	> 100 µM (inactive)	> 100 µM (inactive)	> 100 µM (inactive)	> 100 µM (inactive)	–	> 100 µM (inactive)	> 100 µM (inactive)	–	> 100 µM (inactive)	> 100 µM (inactive)	> 100 µM (inactive)	–	–	–
Cc1nc2c(n1C)C(=O)c1nc(CBr)[nH]c(=O)c1C2=O	0.938 µM (active)	> 100 µM (inactive)	–	–	> 100 µM	–	–	–	–	> 100 µM (inactive)	24.4 µM (inactive)	–	–	> 100 µM (inactive)	> 100 µM (inactive)	46.5 µM (inactive)	> 100 µM (inactive)	> 100 µM (inactive)	> 100 µM (inactive)	> 100 µM (inactive)
CCc1n[nH]c(=O)n1CC	> 100 µM (inactive)	> 100 µM (inactive)	> 100 µM (inactive)	> 100 µM (inactive)	> 100 µM	> 100 µM (inactive)	> 100 µM (inactive)	> 100 µM (inactive)	> 100 µM (inactive)	> 100 µM (inactive)	> 100 µM (inactive)	–	> 100 µM (inactive)	> 100 µM (inactive)	> 100 µM (inactive)	> 100 µM (inactive)	> 100 µM (inactive)	–	–	–
COc1cccc(CC2Cc3ccccc3CC(=O)N2)c1 (stereo not given)	34.9 µM (inactive)	29.9 µM (inactive)	29.2 µM (inactive)	20.8 µM (inactive)	–	42.2 µM (inactive)	72.1 µM (inactive)	9.18 µM (inactive)	> 100 µM (inactive)	85.1 µM (inactive)	35.6 µM (inactive)	> 100 µM (inactive)	11.7 µM (inactive)	46.2 µM (inactive)	80 µM (inactive)	10.1 µM (inactive)	37.6 µM (inactive)	26.8 µM (inactive)	–	–
c1ccc2c(NCCCCCCCCNc3cccc4ccccc34)cccc2c1	> 100 µM (inactive)	24.3 µM (inactive)	19.8 µM (inactive)	85.1 µM (inactive)	25.8 µM	35.8 µM (inactive)	> 100 µM (inactive)	> 100 µM (inactive)	–	21.1 µM (inactive)	> 10 µM (inactive)	21.4 µM (inactive)	46 µM (inactive)	65 µM (inactive)	21.5 µM (inactive)	–	> 10 µM (inactive)	–	34.2 µM (inactive)	25.2 µM (inactive)
c1ccc(C2=NNC3c4ccccc4-c4ccccc4N3C2)cc1 (stereo not given)	35.6 µM (inactive)	33.7 µM (inactive)	27.2 µM (inactive)	26.9 µM (inactive)	48.4 µM	20.1 µM (inactive)	–	46.1 µM (inactive)	21.1 µM (inactive)	33.4 µM (inactive)	35.5 µM (inactive)	21.9 µM (inactive)	99.8 µM (inactive)	44.9 µM (inactive)	23.9 µM (inactive)	28.6 µM (inactive)	19 µM (inactive)	40 µM (inactive)	–	–
CC(=O)Oc1ccccc1[C@H]1CC(=O)C[C@H](c2ccccc2OC(C)=O)C12C(=O)c1ccccc1C2=O	22.6 µM (inactive)	–	–	27.6 µM (inactive)	26.2 µM	23.5 µM (inactive)	25.5 µM (inactive)	30.4 µM (inactive)	79.4 µM (inactive)	–	–	17.9 µM (inactive)	44.2 µM (inactive)	–	12.7 µM (inactive)	–	59.6 µM (inactive)	24.6 µM (inactive)	–	–
O=C(OCCO)C1CC2CC1C1(C2)OCCO1 (stereo not given)	> 100 µM (inactive)	> 100 µM (inactive)	> 100 µM (inactive)	> 100 µM (inactive)	–	> 100 µM (inactive)	–	> 100 µM (inactive)	–	> 100 µM (inactive)	> 100 µM (inactive)	> 100 µM (inactive)	> 100 µM (inactive)	> 100 µM (inactive)	> 100 µM (inactive)	> 100 µM (inactive)	> 100 µM (inactive)	> 100 µM (inactive)	> 100 µM (inactive)	> 100 µM (inactive)
COc1ccc(CCn2nccc2C)cc1	> 100 µM (inactive)	> 100 µM (inactive)	> 100 µM (inactive)	–	> 100 µM	–	–	> 100 µM (inactive)	> 100 µM (inactive)	> 100 µM (inactive)	93.8 µM (inactive)	50.7 µM (inactive)	> 100 µM (inactive)	> 100 µM (inactive)	> 100 µM (inactive)	> 100 µM (inactive)	> 100 µM (inactive)	> 100 µM (inactive)	–	–
COc1cccc(-c2c(C#N)c(N)nc3c2CCS(=O)(=O)c2ccc(C)cc2-3)c1	–	> 100 µM (inactive)	65.2 µM (inactive)	> 100 µM (inactive)	> 100 µM	> 100 µM (inactive)	78.2 µM (inactive)	> 100 µM (inactive)	40.6 µM (inactive)	> 100 µM (inactive)	–	33 µM (inactive)	> 100 µM (inactive)	> 100 µM (inactive)	> 100 µM (inactive)	> 100 µM (inactive)	> 100 µM (inactive)	–	–	–
COc1cccc(CCn2c(N)c(-c3cc(Cl)cc(Cl)c3)c3ccc([N+](=O)[O-])cc3c2=O)c1	3.73 µM (inactive)	4.28 µM (inactive)	3.33 µM (inactive)	3.67 µM (inactive)	3.19 µM	3.9 µM (inactive)	3.51 µM (inactive)	5.21 µM (inactive)	0.897 µM (active)	4.04 µM (inactive)	4.69 µM (inactive)	4.39 µM (inactive)	18.1 µM (inactive)	5.86 µM (inactive)	1.75 µM (inactive)	3.61 µM (inactive)	0.65 µM (active)	–	–	–
Cc1ccc(SSCCCCCS(=O)O)cc1	–	26.9 µM (inactive)	31.2 µM (inactive)	–	–	25.8 µM (inactive)	46.7 µM (inactive)	29.9 µM (inactive)	4.62 µM (inactive)	–	45.3 µM (inactive)	29.6 µM (inactive)	> 100 µM (inactive)	14.6 µM (inactive)	21.2 µM (inactive)	16.8 µM (inactive)	24.9 µM (inactive)	15.4 µM (inactive)	33.9 µM (inactive)	–
